Measured values as given in ChEMBL document CHEMBL4340516, “Synthesis and antitumor activity of novel steroidal imidazolium salt derivatives” (Eur J Med Chem, 2019).

Tests used:
SMMC-7721 [1] = experiment: Cell cycle arrest in human SMMC7721 cells assessed as accumulation of cells at S phase at 0.5 uM after 24 hrs by propidium iodide staining-based flow cytometric analysis (reference value: 24.5 +/- 0.05%); type: functional
SW480 = experiment: Antiproliferative activity against human SW480 cells assessed as reduction in cell viability incubated for 48 hrs by MTS assay; type: functional, cell-based; details: SW480, 48 h
SMMC-7721 [2] = experiment: Cell cycle arrest in human SMMC7721 cells assessed as accumulation of cells at S phase at 4 uM after 24 hrs by propidium iodide staining-based flow cytometric analysis (reference value: 24.5 +/- 0.05%); type: functional
SMMC-7721 [3] = experiment: Induction of apoptosis in human SMMC7721 cells assessed as late apoptotic cells at 2 uM after 48 hrs by annexin V-FITC/propidium iodide staining based flow cytometry (reference value: 3.05%); type: functional
SMMC-7721 [4] = experiment: Cell cycle arrest in human SMMC7721 cells assessed as accumulation of cells at sub-G1 phase at 1 uM after 24 hrs by propidium iodide staining-based flow cytometric analysis (reference value: 2.33 +/- 0.17%); type: functional
SMMC-7721 [5] = experiment: Cell cycle arrest in human SMMC7721 cells assessed as accumulation of cells at S phase at 1 uM after 24 hrs by propidium iodide staining-based flow cytometric analysis (reference value: 24.5 +/- 0.05%); type: functional
SMMC-7721 [6] = experiment: Antiproliferative activity against human SMMC7721 cells assessed as reduction in cell viability incubated for 48 hrs by MTS assay; type: functional, cell-based; details: SMMC-7721, 48 h
HL-60 = experiment: Antiproliferative activity against human HL60 cells assessed as reduction in cell viability incubated for 48 hrs by MTS assay; type: functional, cell-based; details: HL-60, 48 h
SMMC-7721 [7] = experiment: Induction of apoptosis in human SMMC7721 cells assessed as viable cells at 2 uM after 48 hrs by annexin V-FITC/propidium iodide staining based flow cytometry (reference value: 94.7%); type: functional; details: SMMC-7721, 48 h, read-out: Activity
SMMC-7721 [8] = experiment: Induction of apoptosis in human SMMC7721 cells assessed as necrotic cells at 2 uM after 48 hrs by annexin V-FITC/propidium iodide staining based flow cytometry (reference value: 0.6%); type: functional
SMMC-7721 [9] = experiment: Cell cycle arrest in human SMMC7721 cells assessed as accumulation of cells at G0/G1 phase at 1 uM after 24 hrs by propidium iodide staining-based flow cytometric analysis (reference value: 62.58 +/- 0.35%); type: functional
SMMC-7721 [10] = experiment: Induction of apoptosis in human SMMC7721 cells assessed as early apoptotic cells at 2 uM after 48 hrs by annexin V-FITC/propidium iodide staining based flow cytometry (reference value: 1.68%); type: functional
MCF7 = experiment: Antiproliferative activity against human MCF7 cells assessed as reduction in cell viability incubated for 48 hrs by MTS assay; type: functional, cell-based; details: MCF7, 48 h
SMMC-7721 [11] = experiment: Cell cycle arrest in human SMMC7721 cells assessed as accumulation of cells at G0/G1 phase at 0.5 uM after 24 hrs by propidium iodide staining-based flow cytometric analysis (reference value: 62.58 +/- 0.35%); type: functional
SMMC-7721 [12] = experiment: Cell cycle arrest in human SMMC7721 cells assessed as accumulation of cells at G2/M phase at 4 uM after 24 hrs by propidium iodide staining-based flow cytometric analysis (reference value: 8.72 +/- 0.42%); type: functional
SMMC-7721 [13] = experiment: Cell cycle arrest in human SMMC7721 cells assessed as accumulation of cells at G0/G1 phase after 24 hrs by propidium iodide staining-based flow cytometric analysis; type: functional
A549 = experiment: Antiproliferative activity against human A549 cells assessed as reduction in cell viability incubated for 48 hrs by MTS assay; type: functional, cell-based; details: A549, 48 h
SMMC-7721 [14] = experiment: Cell cycle arrest in human SMMC7721 cells assessed as accumulation of cells at G0/G1 phase at 4 uM after 24 hrs by propidium iodide staining-based flow cytometric analysis (reference value: 62.58 +/- 0.35%); type: functional
SMMC-7721 [15] = experiment: Cell cycle arrest in human SMMC7721 cells assessed as accumulation of cells at sub-G1 phase at 0.5 uM after 24 hrs by propidium iodide staining-based flow cytometric analysis (reference value: 2.33 +/- 0.17%); type: functional
SMMC-7721 [16] = experiment: Cell cycle arrest in human SMMC7721 cells assessed as accumulation of cells at G0/G1 phase at 2 uM after 24 hrs by propidium iodide staining-based flow cytometric analysis (reference value: 62.58 +/- 0.35%); type: functional
SMMC-7721 [17] = experiment: Induction of apoptosis in human SMMC7721 cells assessed as late apoptotic cells at 1 uM after 48 hrs by annexin V-FITC/propidium iodide staining based flow cytometry (reference value: 3.05%); type: functional
SMMC-7721 [18] = experiment: Induction of apoptosis in human SMMC7721 cells assessed as viable cells at 1 uM after 48 hrs by annexin V-FITC/propidium iodide staining based flow cytometry (reference value: 94.7%); type: functional; details: SMMC-7721, 48 h, read-out: Activity
SMMC-7721 [19] = experiment: Cell cycle arrest in human SMMC7721 cells assessed as accumulation of cells at G2/M phase at 1 uM after 24 hrs by propidium iodide staining-based flow cytometric analysis (reference value: 8.72 +/- 0.42%); type: functional
SMMC-7721 [20] = experiment: Cell cycle arrest in human SMMC7721 cells assessed as accumulation of cells at G2/M phase at 0.5 uM after 24 hrs by propidium iodide staining-based flow cytometric analysis (reference value: 8.72 +/- 0.42%); type: functional
SMMC-7721 [21] = experiment: Induction of apoptosis in human SMMC7721 cells assessed as necrotic cells at 1 uM after 48 hrs by annexin V-FITC/propidium iodide staining based flow cytometry (reference value: 0.6%); type: functional
SMMC-7721 [22] = experiment: Induction of apoptosis in human SMMC7721 cells assessed as early apoptotic cells at 1 uM after 48 hrs by annexin V-FITC/propidium iodide staining based flow cytometry (reference value: 1.68%); type: functional
SMMC-7721 [23] = experiment: Potency index, ratio of DDP IC50 to compound IC50 for human SMMC7721 cells; type: functional

Structure (SMILES): Cc1cc2c(cc1C)[n+](Cc1ccccc1Br)cn2[C@@H]1CC[C@@]2(C)C(=CC[C@H]3[C@@H]4C[C@@H]5O[C@]6(CC[C@@H](C)CO6)[C@@H](C)[C@@H]5[C@@]4(C)CC[C@@H]32)C1.[Br-]
- Activity (SMMC-7721 [1]): 19.23%
- IC50 (SW480): 790 nM
- Activity (SMMC-7721 [2]): 14.22%
- Activity (SMMC-7721 [3]): 64.9%
- Activity (SMMC-7721 [4]): 2.43%
- Activity (SMMC-7721 [5]): 14.22%
- IC50 (SMMC-7721 [6]): 440 nM
- IC50 (HL-60): 490 nM
- viability at 2 µM (SMMC-7721 [7]): 27.8%
- Activity (SMMC-7721 [8]): 6.62%
- Activity (SMMC-7721 [9]): 78.1%
- Activity (SMMC-7721 [10]): 0.69%
- IC50 (MCF7): 730 nM
- Activity (SMMC-7721 [11]): 73.61%
- Activity (SMMC-7721 [12]): 4.67%
- Activity (SMMC-7721 [13]): Dose-dependent effect
- IC50 (A549): 670 nM
- Activity (SMMC-7721 [14]): 78.1%
- Activity (SMMC-7721 [15]): 2.4%
- Activity (SMMC-7721 [16]): 73.61%
- Activity (SMMC-7721 [17]): 18.7%
- viability at 1 µM (SMMC-7721 [18]): 79.6%
- Activity (SMMC-7721 [19]): 4.67%
- Activity (SMMC-7721 [20]): 3.49%
- Activity (SMMC-7721 [21]): 1.27%
- Activity (SMMC-7721 [22]): 0.373%

Structure (SMILES): C[C@@H]1CC[C@@]2(OC1)O[C@H]1C[C@H]3[C@@H]4CC=C5C[C@H](n6c[n+](Cc7ccccc7Br)c7ccccc76)CC[C@]5(C)[C@H]4CC[C@]3(C)[C@H]1[C@@H]2C.[Br-]
- IC50 (SW480): 2100 nM
- Ratio IC50 (SMMC-7721 [23]): 54
- IC50 (SMMC-7721 [6]): 210 nM
- IC50 (HL-60): 340 nM
- IC50 (MCF7): 2140 nM
- IC50 (A549): 4470 nM

Structure (SMILES): Cc1cc2c(cc1C)[n+](CC(=O)c1ccccc1)cn2[C@@H]1CC[C@@]2(C)C(=CC[C@H]3[C@@H]4C[C@@H]5O[C@]6(CC[C@@H](C)CO6)[C@@H](C)[C@@H]5[C@@]4(C)CC[C@@H]32)C1
- IC50 (SW480): 3220 nM
- IC50 (SMMC-7721 [6]): 900 nM
- IC50 (HL-60): 440 nM
- IC50 (MCF7): 2910 nM
- IC50 (A549): 9570 nM

Structure (SMILES): C[C@@H]1CC[C@@]2(OC1)O[C@H]1C[C@H]3[C@@H]4CC=C5C[C@H](n6c[n+](CC(=O)c7ccc8ccccc8c7)c7ccccc76)CC[C@]5(C)[C@H]4CC[C@]3(C)[C@H]1[C@@H]2C
- IC50 (SW480): 1750 nM
- IC50 (SMMC-7721 [6]): 1330 nM
- IC50 (HL-60): 1100 nM
- IC50 (MCF7): 1670 nM
- IC50 (A549): 1320 nM

Structure (SMILES): CC(=O)O[C@H]1CC[C@@]2(C)C(=CC[C@H]3[C@@H]4CC[C@H](n5cc[n+](Cc6ccc7ccccc7c6)c5)[C@@]4(C)CC[C@@H]32)C1
- IC50 (SW480): 5640 nM
- IC50 (SMMC-7721 [6]): 2450 nM
- IC50 (HL-60): 1220 nM
- IC50 (MCF7): 2530 nM
- IC50 (A549): 4740 nM

Structure (SMILES): C[C@@H]1CC[C@@]2(OC1)O[C@H]1C[C@H]3[C@@H]4CC=C5C[C@H](n6c[n+](CC(=O)c7cccc(Br)c7)c7ccccc76)CC[C@]5(C)[C@H]4CC[C@]3(C)[C@H]1[C@@H]2C
- IC50 (SW480): 1740 nM
- IC50 (SMMC-7721 [6]): 1750 nM
- IC50 (HL-60): 1360 nM
- IC50 (MCF7): 1530 nM
- IC50 (A549): 1770 nM

Structure (SMILES): C[C@]12CC[C@H]3[C@@H](CC=C4C[C@@H](O)CC[C@@]43C)[C@@H]1CC[C@@H]2n1ccnc1
- IC50 (SW480): > 20000 nM
- IC50 (SMMC-7721 [6]): > 20000 nM
- IC50 (HL-60): > 20000 nM
- IC50 (MCF7): > 20000 nM
- IC50 (A549): > 20000 nM

Structure (SMILES): COc1ccc(C(=O)C[n+]2ccn([C@H]3C[C@H]4[C@@H]5CC[C@H]([C@H](C)CCCC(C)C)[C@@]5(C)CC[C@@H]4[C@@]4(C)CC[C@@H]5C[C@]534)c2)cc1
- IC50 (SW480): 7180 nM
- IC50 (SMMC-7721 [6]): 1100 nM
- IC50 (HL-60): 1520 nM
- IC50 (MCF7): 6540 nM
- IC50 (A549): 6680 nM

Structure (SMILES): C[C@@H]1CC[C@@]2(OC1)O[C@H]1C[C@H]3[C@@H]4CC=C5C[C@H](n6cc[n+](CC(=O)c7ccccc7)c6)CC[C@]5(C)[C@H]4CC[C@]3(C)[C@H]1[C@@H]2C
- IC50 (SW480): 8180 nM
- IC50 (SMMC-7721 [6]): 7150 nM
- IC50 (HL-60): 1090 nM
- IC50 (MCF7): 5180 nM
- IC50 (A549): 7300 nM
